# Reference: US20110207770A1, “PHARMACEUTICAL PRODUCT COMPRISING A MUSCARINIC RECEPTOR ANTAGONIST AND A SECOND ACTIVE INGREDIENT” (ASTRAZENECA AB, priority 2008, published 2011)
# Where two headings read alike, the source gives them in different places.
# What was measured:
# [1] = molecular target: T1, Recombinant human M3 receptor (Homo sapiens, UniProt P20309); assay: Muscarinic Receptor Radioligand Binding Assay ([3H]-NMS, SPA)
# T1 construct: expressed in transfected cells; host or cells: CHO-K1 cells (membranes prepared from them)
# Protocol: The inhibitory effects of compounds of the muscarinic antagonists were determined by a Muscarinic Receptor Radioligand Binding Assay.
# Recombinant human M3 receptor was expressed in CHO-K1 cells. Cell membranes were prepared and binding of [3H]-N-methyl scopolamine ([3H]-NMS) and compounds was assessed by a scintillation proximity assay (SPA). The incubation time was 16 hours at ambient temperature in the presence of 1% (v/v) DMSO. The assay was performed in white 96 well clear-bottomed NBS plates (Corning). Prior to the assay, the CHO cell membranes containing M3 receptor were coated onto SPA WGA (Wheat germ agglutinin) beads (GE Healthcare). Non specific binding was determined in the presence of 1 μM Atropine.
# Radioactivity was measured on a Microbeta scintillation counter (PerkinElmer) using a 3H protocol with a 2 minutes per well read time. […] Concentration dependent inhibition of [3H]-NMS binding by compounds was expressed as pIC50.
# [2] = Dynamic vapour sorption (DVS) analysis of crystalline form; type: physicochemical; conditions: at 80% RH, 25° C., crystalline material
# Protocol: Dynamic vapour sorption (DVS) analysis was performed on a Surface Measurement systems (SMS) DVS-Intrinsic moisture sorption analyser. The instrument was controlled by SMS Analysis Suite software (DVS-Intrinsic Control v1.0.0.30). Analysis of the data was performed using Microsoft Excel 2007 together DVS Standard Analysis Suite (v6.0.0.7). Sample temperature was maintained at 25° C. and the sample humidity was obtained by mixing streams of wet and dry nitrogen at a total flow rate of 200 mlmin^−1. The relative humidity was measured using a calibrated Rotronic probe (dynamic range 1-100% Relative Humidity (RH)) located close to the sample. The weight change of the sample as a function of % RH was constantly monitored by the microbalance (accuracy ±0.005 mg). Typically a PXRD would be run prior to analysis. 20 mg of sample was then placed in a tared stainless steel mesh basket under ambient conditions. The sample was loaded and unloaded at 40% RH and 25° C. (typical room conditions) and the sample subjected to a graduated DVS regime over 2 cycles using the parameters shown in Table 1.
# [3] = Gravimetric Vapour Sorption (GVS) of crystalline forms; type: physicochemical; conditions: at 80% RH, crystalline material
# Protocol: Gravimetric Vapour Sorption (GVS) profiles were measured using a Surface Measurements Systems Dynamic Vapour Sorption DVS-1 or a DVS Advantage instrument. The solid sample ca. 1-5 mg was placed into a glass vessel and the weight of the sample was recorded during a dual cycle step method (40 to 90 to 0 to 90 to 0% relative humidity (RH), in steps of 10% RH).
# [4] = CHO-K1 cell membranes, [3H]-NMS, 16 hours at ambient temperature, 1% DMSO, read-out: Ki in the M3 binding assay
# T1 sequence (P20309 whole entry): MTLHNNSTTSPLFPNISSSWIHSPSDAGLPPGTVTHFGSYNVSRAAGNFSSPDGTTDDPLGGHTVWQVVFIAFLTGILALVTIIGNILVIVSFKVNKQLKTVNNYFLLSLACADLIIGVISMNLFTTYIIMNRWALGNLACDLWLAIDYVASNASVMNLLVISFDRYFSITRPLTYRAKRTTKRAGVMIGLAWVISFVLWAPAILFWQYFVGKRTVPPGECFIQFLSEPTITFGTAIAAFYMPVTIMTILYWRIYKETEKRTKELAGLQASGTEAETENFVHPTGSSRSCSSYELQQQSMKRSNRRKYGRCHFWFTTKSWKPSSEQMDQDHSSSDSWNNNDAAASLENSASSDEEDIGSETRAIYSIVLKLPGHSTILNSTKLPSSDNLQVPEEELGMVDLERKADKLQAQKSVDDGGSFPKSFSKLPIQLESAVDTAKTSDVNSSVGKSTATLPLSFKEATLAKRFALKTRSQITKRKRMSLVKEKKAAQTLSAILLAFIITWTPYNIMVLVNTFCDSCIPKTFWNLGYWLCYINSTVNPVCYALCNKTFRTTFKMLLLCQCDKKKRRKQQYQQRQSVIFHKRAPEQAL
Compound,"Ki [1, 4] [nM]",also measured
"O[C@](c1ccccc1)(c1cc(C[N+]23CCC(CC2)[C@@H](Oc2ccc(F)cc2)C3)on1)C1CCCCC1 [Example 1, (R)-1-[3-((R)-Cyclohexyl-hydroxy-phenyl-methyl)-isoxazol-5-ylmethyl]-3-(4-fluoro-phenoxy)-1-azonia-bicyclo[2.2.2]octane chloride]",0.8,
"O=S(=O)([O-])c1ccccc1.O[C@](c1ccccc1)(c1cc(C[N+]23CCC(CC2)[C@@H](Oc2ccc(F)cc2)C3)on1)C1CCCCC1 [Example 2, (R)-1-[3-((R)-Cyclohexyl-hydroxy-phenyl-methyl)-isoxazol-5-ylmethyl]-3-(4-fluoro-phenoxy)-1-azonia-bicyclo[2.2.2]octane benzenesulfonate]",,DVS weight increase [2]: 0.2 % w/w
"O[C@](c1ccccc1)(c1cc(C[N+]23CCC(CC2)[C@@H](Oc2cccc(F)c2)C3)on1)C1CCCCC1 [Example 3, (R)-1-[3-((R)-Cyclohexyl-hydroxy-phenyl-methyl)-isoxazol-5-ylmethyl]-3-(3-fluoro-phenoxy)-1-azonia-bicyclo[2.2.2]octane chloride]",,Ki [1]: 0.66 nM
"O[C@](c1ccccc1)(c1nnc(C[N+]23CCC(CC2)[C@@H](Oc2ccc(F)cc2)C3)o1)C1CCCCC1 [Example 5, (R)-1-[5-((R)-Cyclohexyl-hydroxy-phenyl-methyl)-[1,3,4]oxadiazol-2-ylmethyl]-3-(4-fluoro-phenoxy)-1-azonia-bicyclo[2.2.2]octane bromide]",0.7,
"OC(c1ccccc1)(c1ccccc1)c1cc(C[N+]23CCC(CC2)[C@@H](Sc2cccc(F)c2)C3)on1 [Example 6, (R)-3-(3-Fluoro-phenylsulfanyl)-1-[3-(hydroxy-diphenyl-methyl)-isoxazol-5-ylmethyl]-1-azonia-bicyclo[2.2.2]octane bromide]",0.15,
"Cc1ccc(O[C@H]2C[N+]3(Cc4cc(C(O)(c5ccccc5)c5ccccc5)no4)CCC2CC3)cc1F [Example 7, (R)-3-(3-Fluoro-4-methyl-phenoxy)-1-[3-(hydroxy-diphenyl-methyl)-isoxazol-5-ylmethyl]-1-azonia-bicyclo[2.2.2]octane bromide]",0.4,
"O[C@](c1ccccc1)(c1cc(C[N+]23CCC(CC2)[C@@H](Oc2cccc(F)c2)C3)on1)C1CCCCC1 [Example 8, (R)-1-[3-((R)-Cyclohexyl-hydroxy-phenyl-methyl)-isoxazol-5-ylmethyl]-3-(3-fluoro-phenoxy)-1-azonia-bicyclo[2.2.2]octane 2-hydroxy-ethanesulfonate]",,GVS mass increase [3]: 0.15%
